Test results: patent US9156829B2, “Cycloalkyl and heterocycloalkyl compounds as orexin receptor antagonists” (Takeda Pharmaceutical Company Limited, priority 2014, dated 2015)

How the values were obtained:
human orexin receptor 1 = human orexin receptor 1 (Homo sapiens (Human), UniProt O43613); experiment: Orexin antagonist activity, intracellular calcium FLIPR assay, RBL-2H3 cells expressing human orexin receptor 1; type: cell-based; conditions: RBL-2H3 cells stably expressing human orexin receptor 1; orexin-A at approx. 80% maximal response; compound added 15 minutes before; read-out: Human Orexin1R IC50
human orexin receptor 2 = human orexin receptor 2 (Homo sapiens (Human), UniProt O43614); experiment: Orexin antagonist activity, intracellular calcium FLIPR assay, RBL-2H3 cells expressing human orexin receptor 2; type: cell-based; conditions: RBL-2H3 cells stably expressing human orexin receptor 2; orexin-A at approx. 80% maximal response; compound added 15 minutes before; read-out: Human Orexin2R IC50
Chain of human orexin receptor 2 (O43614 whole entry): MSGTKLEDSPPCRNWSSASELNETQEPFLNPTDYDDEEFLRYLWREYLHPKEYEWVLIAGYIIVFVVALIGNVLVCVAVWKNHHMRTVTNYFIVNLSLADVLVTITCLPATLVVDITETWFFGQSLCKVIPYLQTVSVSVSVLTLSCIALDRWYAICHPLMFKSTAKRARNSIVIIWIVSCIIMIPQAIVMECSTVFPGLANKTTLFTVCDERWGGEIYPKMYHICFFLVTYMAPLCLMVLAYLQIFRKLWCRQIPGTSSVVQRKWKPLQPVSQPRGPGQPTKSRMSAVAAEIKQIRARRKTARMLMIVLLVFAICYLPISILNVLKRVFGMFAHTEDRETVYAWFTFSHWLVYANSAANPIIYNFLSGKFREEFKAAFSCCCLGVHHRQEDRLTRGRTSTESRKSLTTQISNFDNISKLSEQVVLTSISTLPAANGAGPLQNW

Chain of human orexin receptor 1 (O43613 whole entry): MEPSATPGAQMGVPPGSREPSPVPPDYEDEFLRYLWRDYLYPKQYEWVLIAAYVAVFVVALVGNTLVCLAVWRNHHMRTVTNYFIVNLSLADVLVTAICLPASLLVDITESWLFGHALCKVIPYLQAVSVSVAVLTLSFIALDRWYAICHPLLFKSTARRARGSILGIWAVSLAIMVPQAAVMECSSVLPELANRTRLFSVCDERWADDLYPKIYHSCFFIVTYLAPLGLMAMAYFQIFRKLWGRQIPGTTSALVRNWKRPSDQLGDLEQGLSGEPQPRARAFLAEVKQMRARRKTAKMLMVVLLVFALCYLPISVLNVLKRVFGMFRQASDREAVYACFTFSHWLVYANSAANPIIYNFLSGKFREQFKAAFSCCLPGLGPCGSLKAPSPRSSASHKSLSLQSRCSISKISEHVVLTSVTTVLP

| Structure (SMILES) | IC50 (human orexin receptor 1) [nM] | IC50 (human orexin receptor 2) [nM] |
| --- | --- | --- |
| O=C(N[C@H]1CCC[C@@H]1Nc1ncc(C(F)(F)F)cc1Cl)c1ncccc1-n1nccn1 [Example 122, N-[(1S,2S)-2-{[3-Chloro-5-(trifluoromethyl)pyridin-2-yl]amino}cyclopentyl]-3-(2H-1,2,3-triazol-2-yl)pyridine-2-carboxamide] | 32 | > 10000 |
| O=C(N[C@H]1CCC[C@@H]1Nc1cnc(C(F)(F)F)cn1)c1ccccc1C(F)F [Example 65, 2-(Difluoromethyl)-N-[(1S,2S)-2-{[5-(trifluoromethyl)pyrazin-2-yl]amino}cyclopentyl]benzamide] | 797 | > 10000 |
| CN(c1cnc(C(F)(F)F)cn1)[C@H]1CCC[C@@H]1NC(=O)c1ccccc1-n1nccn1 [Example 73, N-[(1S,2S)-2-{Methyl[5-(trifluoromethyl)pyrazin-2-yl]amino}cyclopentyl]-2-(2H-1,2,3-triazol-2-yl)benzamide] | 248 | > 10000 |
| COc1ccc(C)cc1C(=O)N[C@H]1CCC[C@@H]1Nc1cnc(C(F)(F)F)cn1 [Example 37, 2-Methoxy-5-methyl-N-[(1S,2S)-2-{[5-(trifluoromethyl)pyrazin-2-yl]amino}cyclopentyl]benzamide] | 340 | > 10000 |
| CCc1nc(C(F)(F)F)cnc1N[C@H]1CCC[C@@H]1NC(=O)c1ncccc1-c1ncccn1 [Example 150, N-[(1S,2S)-2-{[3-Ethyl-5-(trifluoromethyl)pyrazin-2-yl]amino}cyclopentyl]-3-(pyrimidin-2-yl)pyridine-2-carboxamide] | 43 | > 10000 |
| CCc1nc(C(F)(F)F)cnc1N[C@H]1CCC[C@@H]1NC(=O)c1ccccc1-c1nc(C)no1 [Example 149, N-[(1S,2S)-2-{[3-Ethyl-5-(trifluoromethyl)pyrazin-2-yl]amino}cyclopentyl]-2-(3-methyl-1,2,4-oxadiazol-5-yl)benzamide] | 25 | > 10000 |
| Cc1nnc(-c2ccccc2C(=O)N[C@H]2CCC[C@@H]2Nc2cnc(C(F)(F)F)cn2)o1 [Example 44, 2-(5-Methyl-1,3,4-oxadiazol-2-yl)-N-[(1S,2S)-2-{[5-(trifluoromethyl)pyrazin-2-yl]amino}cyclopentyl]benzamide] | 199 | > 10000 |
| COc1cccc(F)c1C(=O)N[C@H]1CCC[C@@H]1Nc1cnc(C(F)(F)F)cn1 [Example 136, 2-Fluoro-6-methoxy-N-[(1S,2S)-2-{[5-(trifluoromethyl)pyrazin-2-yl]amino}cyclopentyl]benzamide] | 830 | > 10000 |
| CC(C)c1nc(C(F)(F)F)cnc1N[C@H]1CCC[C@@H]1NC(=O)c1ccccc1-n1nccn1 [Example 110, N-[(1S,2S)-2-{[3-(Propan-2-yl)-5-(trifluoromethyl)pyrazin-2-yl]amino}cyclopentyl]-2-(2H-1,2,3-triazol-2-yl)benzamide] | 43 | 3550 |
| O=C(N[C@H]1CCC[C@H]1Oc1cnc(C(F)(F)F)cn1)c1ccccc1-n1nccn1 [Example 19, 2-(2H-1,2,3-Triazol-2-yl)-N-[(1S,2R)-2-{[5-(trifluoromethyl)pyrazin-2-yl]oxy}cyclopentyl]benzamide] | 757 | 6100 |
| CC1(Nc2ncc(C(F)(F)F)cn2)CCCC1NC(=O)c1ncccc1-n1nccn1 (centres unmarked) [Example 154, N-(2-Methyl-2-{[5-(trifluoromethyl)pyrimidin-2-yl]amino}cyclopentyl)-3-(2H-1,2,3-triazol-2-yl)pyridine-2-carboxamide] | 42 | > 10000 |
| Cc1nc(C(F)(F)F)cnc1N[C@H]1CCC[C@@H]1NC(=O)c1ccccc1-n1nccn1 [Example 78, N-[(1S,2S)-2-{[3-Methyl-5-(trifluoromethyl)pyrazin-2-yl]amino}cyclopentyl]-2-(2H-1,2,3-triazol-2-yl)benzamide] | 19 | > 10000 |
| O=C(N[C@H]1CCC[C@@H]1Nc1ncc(C(F)(F)F)nc1C1CC1)c1ncccc1-n1nccn1 [Example 142, N-[(1S,2S)-2-{[3-Cyclopropyl-5-(trifluoromethyl)pyrazin-2-yl]amino}cyclopentyl]-3-(2H-1,2,3-triazol-2-yl)pyridine-2-carboxamide] | 12 | 8830 |
| O=C(N[C@H]1CCC[C@@H]1Nc1ccc(C(F)(F)F)cn1)c1cc(F)cc(F)c1-n1nccn1 [Example 99, 3,5-Difluoro-2-(2H-1,2,3-triazol-2-yl)-N-[(1S,2S)-2-{[5-(trifluoromethyl)pyridin-2-yl]amino}cyclopentyl]benzamide] | 153 | > 10000 |
| O=C(NC1CCCC1Cc1ccc(C(F)(F)F)cn1)c1ccccc1-n1nccn1 (centres unmarked) [Example 24, 2-(2H-1,2,3-Triazol-2-yl)-N-(2-{[5-(trifluoromethyl)pyridin-2-yl]methyl}cyclopentyl)benzamide] | 766 | > 10000 |
| O=C(N[C@H]1CCC[C@@H]1Nc1cnc(C(F)(F)F)cn1)c1cc(F)ccc1-n1cccn1 [Example 47, 5-Fluoro-2-(1H-pyrazol-1-yl)-N-[(1S,2S)-2-{[5-(trifluoromethyl)pyrazin-2-yl]amino}cyclopentyl]benzamide] | 445 | > 10000 |

| Structure (SMILES) | IC50 (human orexin receptor 1) [nM] | IC50 (human orexin receptor 2) [nM] |
| --- | --- | --- |
| Cc1noc(-c2ccccc2C(=O)N[C@H]2CCC[C@@H]2Nc2ncc(C(F)(F)F)nc2C)n1 [Example 141, 2-(3-Methyl-1,2,4-oxadiazol-5-yl)-N-[(1S,2S)-2-{[3-methyl-5-(trifluoromethyl)pyrazin-2-yl]amino}cyclopentyl]benzamide] | 62 | > 10000 |
| COc1cccc(OC)c1C(=O)N(C1CCC1)[C@H]1CCC[C@@H]1Nc1ccc(C(F)(F)F)cn1 [Example 68, N-Cyclobutyl-2,6-dimethoxy-N-[(1S,2S)-2-{[5-(trifluoromethyl)pyridin-2-yl]amino}cyclopentyl]benzamide] | 297 | 1610 |
| O=C(N[C@H]1CCC[C@@H]1Nc1cnc(C(F)(F)F)cn1)c1cc(F)ccc1-n1nccn1 [Example 36, 5-Fluoro-2-(2H-1,2,3-triazol-2-yl)-N-[(1S,2S)-2-{[5-(trifluoromethyl)pyrazin-2-yl]amino}cyclopentyl]benzamide] | 207 | > 10000 |
| O=C(N[C@H]1CCC[C@@H]1Nc1ccc(Br)cn1)c1ccccc1-n1nccn1 [Example 118, N-[(1S,2S)-2-[(5-Bromopyridin-2-yl)amino]cyclopentyl]-2-(2H-1,2,3-triazol-2-yl)benzamide] | 368 | > 10000 |
| Cc1cc(C(F)(F)F)cnc1N[C@H]1CCC[C@@H]1NC(=O)c1ncccc1-c1ncccn1 [Example 137, N-[(1S,2S)-2-{[3-Methyl-5-(trifluoromethyl)pyridin-2-yl]amino}cyclopentyl]-3-(pyrimidin-2-yl)pyridine-2-carboxamide] | 34 | > 10000 |
| CN(c1cnc(C(F)(F)F)cn1)[C@H]1CCC[C@@H]1NC(=O)c1c(F)cccc1-n1nccn1 [Example 75, 2-Fluoro-N-[(1S,2S)-2-{methyl[5-(trifluoromethyl)pyrazin-2-yl]amino}cyclopentyl]-6-(2H-1,2,3-triazol-2-yl)benzamide] | 279 | > 10000 |
| Cc1cc(C(F)(F)F)cnc1N[C@H]1CCC[C@@H]1NC(=O)c1ncccc1-n1nccn1 [Example 124, N-[(1S,2S)-2-{[3-Methyl-5-(trifluoromethyl)pyridin-2-yl]amino}cyclopentyl]-3-(2H-1,2,3-triazol-2-yl)pyridine-2-carboxamide] | 21 | > 10000 |
| CC1(Nc2ncc(C(F)(F)F)cc2F)CCCC1NC(=O)c1ncccc1-c1ncccn1 (centres unmarked) [Example 146, N-(2-{[3-Fluoro-5-(trifluoromethyl)pyridin-2-yl]amino}-2-methylcyclopentyl)-3-(pyrimidin-2-yl)pyridine-2-carboxamide] | 7 | > 10000 |
| O=C(N[C@H]1CCC[C@@H]1Nc1cnc(C(F)(F)F)cn1)c1cccc(F)c1-n1nccn1 [Example 53, 3-Fluoro-2-(2H-1,2,3-triazol-2-yl)-N-[(1S,2S)-2-{[5-(trifluoromethyl)pyrazin-2-yl]amino}cyclopentyl]benzamide] | 93 | > 10000 |
| CCOc1ccc(C)nc1C(=O)N[C@H]1CCC[C@@H]1Nc1cnc(C(F)(F)F)cn1 [Example 30, 3-Ethoxy-6-methyl-N-[(1S,2S)-2-{[5-(trifluoromethyl)pyrazin-2-yl]amino}cyclopentyl]pyridine-2-carboxamide] | 370 | > 10000 |
| Cc1noc(-c2ccccc2C(=O)N[C@H]2CCC[C@]2(C)Nc2cnc(C(F)(F)F)cn2)n1 [Example 145, 2-(3-Methyl-1,2,4-oxadiazol-5-yl)-N-[(1S,2S)-2-methyl-2-{[5-(trifluoromethyl)pyrazin-2-yl]amino}cyclopentyl]benzamide] | 11 | > 10000 |
| CCc1cnc(N[C@H]2CCC[C@@H]2NC(=O)c2cc(C)ccc2-n2nccn2)nc1 [Example 4, N-[(1S,2S)-2-[(5-Ethylpyrimidin-2-yl)amino]cyclopentyl]-5-methyl-2-(2H-1,2,3-triazol-2-yl)benzamide] | 520 | > 10000 |
| O=C(N[C@H]1CCC[C@@H]1Nc1cnc(C(F)(F)F)cn1)c1ccccc1-n1cccn1 [Example 31, 2-(1H-Pyrazol-1-yl)-N-[(1S,2S)-2-{[5-(trifluoromethyl)pyrazin-2-yl]amino}cyclopentyl]benzamide] | 122 | > 10000 |
| CCc1cnc(N[C@H]2CCC[C@@H]2NC(=O)c2ccccc2-n2nccn2)cn1 [Example 114, N-[(1S,2S)-2-[(5-Ethylpyrazin-2-yl)amino]cyclopentyl]-2-(2H-1,2,3-triazol-2-yl)benzamide] | 997 | > 10000 |
| Cc1nc(C(F)(F)F)cnc1N[C@H]1CCC[C@@H]1NC(=O)c1ccccc1-c1ncccn1 [Example 79, N-[(1S,2S)-2-{[3-Methyl-5-(trifluoromethyl)pyrazin-2-yl]amino}cyclopentyl]-2-(pyrimidin-2-yl)benzamide] | 35 | > 10000 |
